Results filed as inconclusive are left out.
Target: Virion infectivity factor (Human immunodeficiency virus type 1 group M subtype B (isolate BH10)) + Virion infectivity factor (Human immunodeficiency virus type 1 group M subtype B (isolate BRU/LAI)) + Virion infectivity factor (Human immunodeficiency virus type 1 group M subtype B (isolate PCV12)) + Virion infectivity factor (Human immunodeficiency virus type 1 group M subtype B (isolate HXB2)) + DNA dC->dU-editing enzyme APOBEC-3G (Homo sapiens) (UniProt P69720+P69721+P69722+P69723+Q9HC16)
Assay: inhibitors of Vif binding to APOBEC3G peptide, primary screen, biochemical, TR-FRET, GST-Vif 1-94, biotin-A3G peptide, dose response retest (AID 1117319);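 note: Vif residues 1-94 fused to GST binding biotinylated APOBEC3G peptide 110-148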

Question: How did the IC50 turn out when `O=C(Nc1cc(Cl)cc(Cl)c1)c1coc(=O)c(Br)c1` was run?
Answer: Its IC50 is 19.1 µM.

Question: Which IC50 does the source give for `Nc1ncnc2oc(-c3ccco3)c(-c3ccco3)c12` here?
Answer: Its IC50 is 0.55 µM.

Question: With `O=S(=O)(c1ccc(NC(=S)N/N=C/c2ccc(O)c(O)c2)cc1)N1CCOCC1` as the molecule, how does the IC50 read?
Answer: The IC50 was 7.53 µM.

Question: Which IC50 does the source give for `Cn1c(=O)c2c(ncn2CC(=O)N/N=C/C=C/c2ccco2)n(C)c1=O` here?
Answer: The IC50 was 6.39 µM.

Question: For `COC(=O)C1=C(N)OC2=C(C(=O)CCC2)C1c1cccs1` (stereo unspecified), which IC50 is on record?
Answer: Its IC50 is 44.8 µM.

Question: How did the IC50 turn out when `Cc1ccc[n+](-c2[nH]c(=O)sc2/C=N/NC(=O)c2ccccc2[O-])c1` was run?
Answer: The IC50 was 51.4 µM.

Question: Which IC50 does the source give for `CCN(CC)C(=O)c1ccc2c(c1)C1C(Cl)C(Sc3ccccc3[N+](=O)[O-])CC1C(C(=O)O)N2` (stereo unspecified) here?
Answer: The IC50 was 13 µM.

Question: Which IC50 does the source give for `COc1cc2[nH]c(Cl)c([N+](=O)[O-])c2cc1OC` here?
Answer: Its IC50 is 3.81 µM.

Question: How did the IC50 turn out when `Cc1cc(Cl)c(S(=O)(=O)NCC2CCCO2)cc1OCC(=O)NC1CCCCC1` (stereo unspecified) was run?
Answer: The IC50 was 77.1 µM.

Question: `O=C(O)CCCCC1CCSS1` (stereo unspecified) was tested. Which IC50 did it give?
Answer: The IC50 was 7.67 µM.

Question: With `CCC(C)C(NC(=O)[C@@H](NC(=O)c1ccccc1F)C(C)C)C(=O)OC` (stereo partly specified) as the molecule, how does the IC50 read?
Answer: The IC50 was 5.83 µM.

Question: For `CC(/C=N/n1c(-c2ccncc2)n[nH]c1=S)=C\c1ccco1`, which IC50 is on record?
Answer: The IC50 was 5.1 µM.

Question: With `COC(=O)c1ccc(CC(=O)c2c(C)cc(O)cc2O)o1` as the molecule, how does the IC50 read?
Answer: Its IC50 is 2.33 µM.

Question: With `COc1ccc(O)c(C(=O)C2c3ccccc3C(=O)N2c2ccc(C)cc2)c1` (stereo unspecified) as the molecule, how does the IC50 read?
Answer: The IC50 was 20.4 µM.

Question: How did the IC50 turn out when `COc1ccc2[nH]c(=O)c(CN(Cc3ccco3)C(c3nnnn3Cc3ccccc3)C(C)C)cc2c1` (stereo unspecified) was run?
Answer: Its IC50 is 94.6 µM.

Question: Which IC50 does the source give for `CCN(CC)c1ccc(NC2=C(Cl)C(=O)c3ccccc3C2=O)cc1` here?
Answer: The IC50 was 3.81 µM.

Question: With `N#C/C=C\Oc1ccc(Cl)cc1N` as the molecule, how does the IC50 read?
Answer: The IC50 was 50.3 µM.

Question: `O=C(N/N=C/C=C/c1ccco1)c1cccs1` was tested. Which IC50 did it give?
Answer: Its IC50 is 7.15 µM.

Question: How did the IC50 turn out when `O=C(NCCc1ccccc1)c1ccc2nc(-c3ccco3)c(-c3ccco3)nc2c1` was run?
Answer: Its IC50 is 3.01 µM.

Question: With `O=C(O)C1Nc2c(O)cc(Cl)c([N+](=O)[O-])c2C2C=CCC12` (stereo unspecified) as the molecule, how does the IC50 read?
Answer: The IC50 was 0.23 µM.

Question: How did the IC50 turn out when `CN(C)c1ccc(Cc2cc3c(O)ccc(O)c3cc(Cc3ccc(N(C)C)cc3)c2=O)cc1` was run?
Answer: The IC50 was 0.87 µM.

Question: For `O=C(O)c1ccc(S(=O)(=O)c2ccc([N+](=O)[O-])cc2[N+](=O)[O-])cc1`, which IC50 is on record?
Answer: The IC50 was 53.3 µM.

Question: Which IC50 does the source give for `CC(C)(C)C1C/C(=C/c2ccco2)C(=O)/C(=C/c2ccco2)C1` (stereo unspecified) here?
Answer: The IC50 was 2.65 µM.

Question: `COc1ccc(NC(=S)NCCc2ccccc2OC)c(OC)c1` was tested. Which IC50 did it give?
Answer: The IC50 was 7.02 µM.

Question: How did the IC50 turn out when `Cc1ccc(Nc2ccc(N)cc2S(=O)(=O)O)cc1` was run?
Answer: Its IC50 is 32 µM.

Question: For `COc1ccc(S(=O)(=O)Nc2cc(SCC(=O)O)c(O)c3ccccc23)cc1`, which IC50 is on record?
Answer: Its IC50 is 22.1 µM.

Question: How did the IC50 turn out when `CC(=O)c1ccc2c(c1)C1C=CCC1C(C(=O)O)N2` (stereo unspecified) was run?
Answer: Its IC50 is 0.6 µM.

Question: Which IC50 does the source give for `C=CCSC1=N/C(=C\C=C\c2ccco2)C(=O)S1` here?
Answer: Its IC50 is 1.05 µM.

Question: Which IC50 does the source give for `CC1=C(C#N)C(=O)N(C2CCS(=O)(=O)C2)C(=O)/C1=C\c1ccco1` (stereo unspecified) here?
Answer: Its IC50 is 0.62 µM.

Question: How did the IC50 turn out when `CCN(CC)c1ccc(NC2CC(=O)N(CCc3ccc(OC)cc3)C2=O)cc1` (stereo unspecified) was run?
Answer: The IC50 was 6.97 µM.

Question: Which IC50 does the source give for `NC(=O)c1c(NC(=O)Cc2cccs2)sc2c1CCC2` here?
Answer: The IC50 was 49.5 µM.

Question: With `COc1cc(NC(=O)c2noc3c2CCC3)c(OC)cc1Cl` as the molecule, how does the IC50 read?
Answer: Its IC50 is 15.8 µM.

Question: Which IC50 does the source give for `CNc1cccccc1=S` here?
Answer: The IC50 was 0.51 µM.

Question: For `COc1ccc(N=C2NC(=O)/C(=C\C=C\c3ccco3)S2)cc1`, which IC50 is on record?
Answer: Its IC50 is 2.2 µM.

Question: `O=C(O)CC(C(=O)O)N1C(=O)/C(=C/C=C/c2ccco2)SC1=S` (stereo unspecified) was tested. Which IC50 did it give?
Answer: Its IC50 is 0.96 µM.

Question: Which IC50 does the source give for `C=CCN1C(=O)/C(=C\c2ccco2)C(C(=O)OC)=C1C` here?
Answer: Its IC50 is 14.1 µM.
